Test results: patent publication US20100291236A1, “OSMIUM COMPOUNDS” (THE UNIVERSITY OF WARWICK, priority 2006, published 2010)
“And” between values parts separate entries of the source, which are not always exact repeats. Equal entries are not always repeated. “Also recorded” adds a separate entry of the source. Where two headings read alike, the source gives them in different places.

Experiments:
[1] = system: human ovarian A2780 cancer cells; details: Peacock et al, J. Am. Chem. Soc. 2006; said to be erroneous; cited from earlier work
[2] = system: human ovarian A2780 cancer cells; test: Cytotoxicity towards A2780 cells, sulforhodamine B (SRB) assay; format: cell-based
Description: (§1) Experimental: Cytotoxicity Towards A2780 and A549 Human Cancer Cells. After plating, human ovarian A2780 cancer cells were treated with Os^II complexes on day 3, and human lung A549 cancer cells on day 2, at concentrations ranging from 2 μM to 50 μM. Solutions of the Os^II complexes were made up in 0.125% DMSO to assist dissolution. Cells were exposed to the complexes for 24 h, washed, supplied with fresh medium, allowed to grow for three doubling times (72 h), and then the protein content measured (proportional to cell survival) using the sulforhodamine B (SRB) assay.
(§2) Cancer Cell Cytotoxicity. After plating, human ovarian A2780 cancer cells were treated with OsII complexes on day 3, and human lung A549 cancer cells on day 2, at concentrations ranging from 0.1 μM to 100 μM. Solutions of the OsII complexes were made up in 0.125% DMSO to assist dissolution. Cells were exposed to the complexes for 24 h, washed, supplied with fresh medium, allowed to grow for three doubling times (72 h), and then the protein content measured (proportional to cell survival) using the sulforhodamine B (SRB) assay.10

[3] = system: human lung A549 cancer cells; test: Cytotoxicity towards A549 cells, sulforhodamine B (SRB) assay; format: cell-based
Description: as §1, §2

[4] = Stability in isotonic saline solutions; format: physicochemical; details: after 16 days of storage in the dark
Description: Stability tests on AFAP42, 64, 62, 05, 51 and 65 in isotonic saline solutions were also performed.

[5] = system: A549 human lung and A2780 human ovarian cancer cell lines; test: Cytotoxicity in A549 and A2780 cell lines, result not split by cell line; format: cell-based
Description: as §1, §2

[6] = Stability against formation of hydroxo-bridged dimers; format: physicochemical; details: for Formation of inert hydroxo-bridged dimers: micromolar concentrations; for Stability with no evidence of dimer formation: 50 μM, even after incubation at 310 K (24 h)
Description: Complexes containing O,O-chelated ligands are deactivated at micromolar concentrations by loss of the chelate and formation of inert hydroxo-bridged dimers.

[7] = Acidity (pKa / pKa*) of coordinated water, 1H NMR pH* titration
Description: pKa* calculations. […] The chemical shifts of the arene ring protons were plotted against pH*. The pH* titration curves were fitted to the Henderson-Hasselbalch equation, with the assumption that the observed chemical shifts are weighted averages according to the populations of the protonated and deprotonated species.

[8] = extreme conditions of heating, sonicating, exposure to air and extreme sunlight
Description: Samples are prepared for testing by initially dissolving in 5% DMSO and subsequently diluting down.

[9] = Effect of chloride concentration on aqua adduct formation; format: physicochemical; details: for % aqua adduct: 1 mM complex in D2O, t = 26 h
[10] = Hydrolysis (aquation) kinetics followed by 1H NMR; format: physicochemical; details: for Hydrolysis k/h^−1: 5% MeOD-d4/95% D2O, pH* 2
Description: Hydrolysis. […] The rate of hydrolysis was determined by fitting plots of concentrations (determined by ^1H NMR peak integrals) versus time to a pseudo first-order equation using ORIGIN version 5.0 (Microcal Software Ltd.).

9-ethyl guanine (9EtG) = test: Reaction with nucleobase model 9-ethyl guanine, 1H NMR; format: binding; details: 1 mM complex, 1 mol equivalent 9EtG, D2O
Description: (§3) Since DNA is believed to be the main target for metal anticancer drugs, nucleobase binding reactions of compounds 3-6, with nucleobase models, 9-ethyl guanine (9EtG) and 9-ethyl adenine (9EtA), were investigated.
(§4) Solutions of 3-6 (1 mM) (present as an equilibrium between 3-6 and their respective aqua adducts as the major species) with 1 mol equivalent of 9EtG (Table 14) or 9EtA (Table 15) in D2O were prepared and ^1H NMR spectra were taken at different time intervals.
(§5) Interactions with Nucleobases. The reaction of compounds 8-12 with nucleobases typically involved addition of a solution containing 1 mol equiv of nucleobase in D2O, to an equilibrium solution of compounds 8-12 in D2O (>90% aqua). The pH* value of the sample was adjusted if necessary so as to remain close to 7.4 (physiological). ^1H NMR spectra of these solutions were recorded at 298 K after various time intervals.

[11] = Effect of chloride concentration on aqua adduct formation; format: physicochemical; details: for % aqua adduct: 1 mM complex in D2O, t = 10 min; for % of aqua complex formed: 1 mM complex
Description: The effects of chloride levels on the distribution of AFAP42 (“prodrug”) and its aqua analogue (“active species”) were investigated. […] Results are summarised in table 6, showing how the hydrolysis of AFAP42 is suppressed in solutions with chloride concentrations similar to those found in blood plasma. At chloride concentrations typical of the cells cytoplasm, complex AFAP42 hydrolyses to some extent and at chloride concentrations typical of the nucleus (where the proposed target, DNA, can be found), the complex is present predominantly as the “active species” the aqua complex.
The effects of chloride concentrations typical of blood plasma (100 mM), cell cytoplasm (22.7 mM) and cell nucleus (4 mM) on the aqueous chemistry of 3 and 6 were investigated. ^1H NMR spectra of 3 or 6 (1 mM) were recorded within 10 min of sample preparation and after incubation at 310 K for 24 h.

9-ethyl adenine (9EtA) = test: Reaction with nucleobase model 9-ethyl adenine, 1H NMR; format: binding; details: 1 mM complex, 1 mol equivalent 9EtA, D2O
Description: as §3, §4, §5

[12] = system: A2780cisR (with acquired cisplatin resistance); details: MTT, 72 hours exposure, 0 to 128 μM
Description: All experiments were made in quadruplicate.
All experiments were performed in quadruplicate.

[13] = Table 7, 24 h exposure, 72 h growth, 2-50 μM, read-out: IC50/μM A2780
[14] = Table 7, 24 h exposure, 72 h growth, 2-50 μM, read-out: IC50/μM A549

NCCN.[Cl][Os+].c1ccc(-c2ccccc2)cc1.c1ccc([B-](c2ccccc2)(c2ccccc2)c2ccccc2)cc1 [(III)]
Activity toward A2780 cells as previously reported [1]: inactive

F[P-](F)(F)(F)(F)F.NCCN.[Cl][Os+].c1ccc(-c2ccccc2)cc1 [AFAP05, [(η^6-bip)Os(en)Cl]PF6]
IC50 [2, 13]: 7 µM | IC50 [3, 14]: 10 µM | Stability of isotonic saline solutions [4]: stable

Cc1ccc(C(C)C)cc1.Cc1ccc2c(c1)[S][Os-]([Cl])[S]2.[Na+] (centres unmarked) [AFAP40, [(η^6-p-cym)Os(S2C7H6)Cl]Na]
Cytotoxicity, A549 and A2780 [5]: showed activity; also recorded: Shows cytotoxicity | Aqueous solubility (Aqueous solubility): very poor

Cc1ccc(C(C)C)cc1.NCC(=O)[O][Os][Cl] [AFAP43]
IC50 [2, 13]: > 100 µM | IC50 [3, 14]: > 100 µM | Formation of inert hydroxo-bridged dimers [6]: form in small amounts | pKa of water coordinated on hydrolysis (aqua adduct of complex) [7]: 7.17

CC(N)C(=O)[O][Os][Cl].Cc1ccc(C(C)C)cc1 [AFAP44]
IC50 [2, 13]: > 100 µM | IC50 [3, 14]: > 100 µM | Formation of inert hydroxo-bridged dimers [6]: form in small amounts | pKa of water coordinated on hydrolysis (aqua adduct of complex) [7]: 7.05

Cc1ccc(C(C)C)cc1.NCCC(=O)[O][Os][Cl] [AFAP49]
IC50 [2, 13]: > 100 µM | IC50 [3, 14]: > 100 µM | Formation of inert hydroxo-bridged dimers [6]: form in small amounts | pKa of water coordinated on hydrolysis (aqua adduct of complex) [7]: 7.43

F[B-](F)(F)F.[Cl][Os-]1[NH2+]CC[NH2+]1.c1ccc(-c2ccccc2)cc1 [AFAP51, [(η^6-bip)Os(en)Cl]BF4]
Cytotoxicity, A549 and A2780 [5]: does show cytotoxicity | Activity toward A2780 cells as previously reported [1]: inactive | IC50 [2, 13]: 7.6 µM | IC50 [3, 14]: 10 µM | pKa of water coordinated on hydrolysis (aqua adduct of complex) [7]: 6.34 | Stability of solutions in DMSO-d6 [8]: can decompose | Stability of isotonic saline solutions [4]: stable

CC(C)(N)C(=O)[O][Os][Cl].Cc1ccc(C(C)C)cc1 [AFAP60]
IC50 [2, 13]: > 100 µM | IC50 [3, 14]: > 100 µM | Formation of inert hydroxo-bridged dimers [6]: form in small amounts | pKa of water coordinated on hydrolysis (aqua adduct of complex) [7]: 7.08

Cc1ccnc(C(=O)[O][Os][Cl])c1.c1ccc(-c2ccccc2)cc1 [Compound 6, [(η^6-bip)Os(4-Me-pico)Cl]]
% aqua adduct ([9]; 4 mM NaCl): 81% | % aqua adduct ([9]; 22.7 mM NaCl): 53% | % aqua adduct ([9]; 100 mM NaCl): 20% | Aquation k/h^−1 ([10]; 278 K): 0.17 h⁻¹ | Aquation k/h^−1 ([10]; 285 K): 0.44 h⁻¹ | Hydrolysis k/h^−1 ([10]; 288 K): 0.710 ± 0.012 h⁻¹ and 0.71 h⁻¹ | Hydrolysis k/h^−1 ([10]; 298 K): 2.32 ± 0.08 h⁻¹ and 2.32 h⁻¹ | Ea of aquation ([10]; from rates at 278-298 K): 21.65 kcal/mol | ΔH^‡ of aquation ([10]; from rates at 278-298 K): 21 kcal/mol | ΔS^‡ of aquation ([10]; from rates at 278-298 K): −55.56 J K^−1 mol^−1 | Activity in A2780 cancer cell line [2]: toxic | IC50 ([2]; Table 8, compounds 1-6, read-out: A2780 IC50): 4.4 µM | % 9EtG nucleobase adduct (9-ethyl guanine (9EtG); t = 10): 0% | % 9EtG nucleobase adduct (9-ethyl guanine (9EtG); t = 24 h): 80% | % 9EtG nucleobase adduct (9-ethyl guanine (9EtG); t = 72 h): 85% | IC50 ([3]; Table 8, compounds 1-6, read-out: A549 IC50): 10 to 50 µM | % aqua adduct ([11]; 4 mM NaCl): 82% | % aqua adduct ([11]; 22.7 mM NaCl): 53% | % aqua adduct ([11]; 100 mM NaCl): 10% | pKa* of the aqua adduct [7]: 6.42 | % 9EtA nucleobase adduct (9-ethyl adenine (9EtA); t = 10): 0% | % 9EtA nucleobase adduct (9-ethyl adenine (9EtA); t = 24 h): 60% | % 9EtA nucleobase adduct (9-ethyl adenine (9EtA); t = 72 h): 60%

[Cl][Os-]1[NH2+]CC[NH2+]1.c1ccc(-c2ccccc2)cc1 [[(η^6-bip)Os(en)Cl]^+]
Hydrolysis slower than the equivalent ruthenium complex ([10]; osmium complex versus equivalent ruthenium complex): 40 times | Activity in cisplatin resistant A2780cisR compared with A2780 [12]: even greater activity in the cisplatin resistant cell line

[(η^6-bip)Os(pico)Cl] [AFAP64]
IC50 [2, 13]: 4.2 µM | IC50 [3, 14]: 8 µM | pKa of water coordinated on hydrolysis (aqua adduct of complex) [7]: 6.30 | Stability of isotonic saline solutions [4]: stable

[(η^6-p-cym)Os(pico)Cl] [AFAP42]
% of aqua complex formed ([9]; 4 mM [Cl], 50 μM complex, T = 0): 73.5% Aqua | % of aqua complex formed ([9]; 4 mM [Cl], 50 μM complex, T = 24 h (310 K)): 72.1% Aqua | % of aqua complex formed ([9]; 22.7 mM [Cl], 50 μM complex, T = 0): 44.8% Aqua | % of aqua complex formed ([9]; 22.7 mM [Cl], 50 μM complex, T = 24 h (310 K)): 45.2% Aqua | % of aqua complex formed ([9]; 22.7 mM [Cl], 1 mM complex, T = 24 h (310 K)): 30.5% Aqua | % of aqua complex formed ([9]; 100 mM [Cl], 50 μM complex, T = 0): 0% Aqua | % of aqua complex formed ([9]; 100 mM [Cl], 50 μM complex, T = 24 h (310 K)): 0% Aqua | IC50 [2, 13]: 4.5 µM | IC50 [3, 14]: 17 µM | Stability with no evidence of dimer formation [6]: 100% | % of aqua complex formed ([11]; 4 mM [Cl], T = 0): 56.1% Aqua | % of aqua complex formed ([11]; 4 mM [Cl], T = 24 h (310 K)): 65.5% Aqua | % of aqua complex formed ([11]; 22.7 mM [Cl], T = 0): 29.8% Aqua | % of aqua complex formed ([11]; 100 mM [Cl], T = 0): 12% Aqua | % of aqua complex formed ([11]; 100 mM [Cl], T = 24 h (310 K)): 12.9% Aqua | pKa of water coordinated on hydrolysis (aqua adduct of complex) [7]: 6.62 | Stability of isotonic saline solutions [4]: stable

[(η^6-p-cym)Os(quin)Cl] [AFAP62]
IC50 [2, 13]: 15 µM and 15.2 µM | IC50 [3, 14]: 60 µM | Stability with no evidence of dimer formation [6]: 100% | pKa of water coordinated on hydrolysis (aqua adduct of complex) [7]: 7.52 | Stability of isotonic saline solutions [4]: stable
